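All cell lines were grown in 96-well plates and treated with compound for 48 hours. GI50 = concentration required for 50% inhibition of growth.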 Activity calls are given as the source filed them. Rule as the data show it: active = GI50 up to about 1.1 µM and inactive = higher.
What was measured:
Assay in all cases: DTP human tumour cell line panel, 48 h
786-0 = tested on: 786-0
A549 = tested on: A549
ACHN = tested on: ACHN
CAKI-1 = tested on: CAKI-1
COLO 205 = tested on: COLO 205
EKVX = tested on: EKVX
HCC 2998 = tested on: HCC 2998
KM12 = tested on: KM12
NCI-H23 = tested on: NCI-H23
NCI-H460 = tested on: NCI-H460
OVCAR-5 = tested on: OVCAR-5
OVCAR-8 = tested on: OVCAR-8
RXF 393 = tested on: RXF 393
SK-MEL-2 = tested on: SK-MEL-2
SK-MEL-5 = tested on: SK-MEL-5
UACC-62 = tested on: UACC-62
NCI-H226 = tested on: NCI-H226

SMILES | GI50 (786-0) | GI50 (A549) | GI50 (ACHN) | GI50 (CAKI-1) | GI50 (COLO 205) | GI50 (EKVX) | GI50 (HCC 2998) | GI50 (KM12) | GI50 (NCI-H23) | GI50 (NCI-H460) | GI50 (OVCAR-5) | GI50 (OVCAR-8) | GI50 (RXF 393) | GI50 (SK-MEL-2) | GI50 (SK-MEL-5) | GI50 (UACC-62) | GI50 (NCI-H226)
N#CC1=C(N)Oc2c(ccc3cccnc23)C1c1ccccc1 (stereo not drawn) | 6 µM (inactive) | 0.738 µM (active) | 10.4 µM (inactive) | 0.619 µM (active) | 1.24 µM (inactive) | 4.78 µM (inactive) | 4.69 µM (inactive) | 0.441 µM (active) | 1.31 µM (inactive) | 0.738 µM (active) | 72.4 µM (inactive) | 3.38 µM (inactive) | 2.13 µM (inactive) | 0.296 µM (active) | 0.811 µM (active) | 0.697 µM (active) | –
CN(C)c1ccc(/C=C2\C=Cc3ccccc32)cc1 | 61 µM (inactive) | 76.6 µM (inactive) | > 100 µM (inactive) | 78 µM (inactive) | 58.6 µM (inactive) | – | 78 µM (inactive) | 49.7 µM (inactive) | 35.6 µM (inactive) | 39.4 µM (inactive) | > 100 µM (inactive) | 94.8 µM (inactive) | 17.9 µM (inactive) | 90.6 µM (inactive) | 36.3 µM (inactive) | 42.3 µM (inactive) | –
COC(=O)c1ccc(C(=O)OC)c2nc3cc(Cl)ccc3nc12 | > 100 µM (inactive) | > 100 µM (inactive) | > 100 µM (inactive) | > 100 µM (inactive) | > 100 µM (inactive) | > 100 µM (inactive) | > 100 µM (inactive) | > 100 µM (inactive) | > 100 µM (inactive) | > 100 µM (inactive) | > 100 µM (inactive) | > 100 µM (inactive) | – | > 100 µM (inactive) | > 100 µM (inactive) | > 100 µM (inactive) | > 100 µM (inactive)
CNS(=O)(=O)NNS(=O)(=O)c1cccc([N+](=O)[O-])c1 | > 100 µM (inactive) | > 100 µM (inactive) | > 100 µM (inactive) | > 100 µM (inactive) | > 100 µM (inactive) | > 100 µM (inactive) | > 100 µM (inactive) | > 100 µM (inactive) | > 100 µM (inactive) | > 100 µM (inactive) | – | > 100 µM (inactive) | > 100 µM (inactive) | > 100 µM (inactive) | > 100 µM (inactive) | > 100 µM (inactive) | –
Cn1c2cc([N+](=O)[O-])ccc2c(=O)c2c(O)cc3c(c21)C=CC(C)(C)O3 | 44.3 µM (inactive) | 57.4 µM (inactive) | > 100 µM (inactive) | 60.5 µM (inactive) | > 100 µM (inactive) | 22 µM (inactive) | > 100 µM (inactive) | > 100 µM (inactive) | 63.4 µM (inactive) | > 100 µM (inactive) | 32 µM (inactive) | 59.3 µM (inactive) | 25.9 µM (inactive) | 40.7 µM (inactive) | > 100 µM (inactive) | 25.1 µM (inactive) | –
COc1ccc(/C=N/NC(=O)NCCNCCO)cc1 | > 100 µM (inactive) | > 100 µM (inactive) | > 100 µM (inactive) | > 100 µM (inactive) | > 100 µM (inactive) | – | – | > 100 µM (inactive) | > 100 µM (inactive) | > 100 µM (inactive) | > 100 µM (inactive) | > 100 µM (inactive) | > 100 µM (inactive) | > 100 µM (inactive) | > 100 µM (inactive) | > 100 µM (inactive) | > 100 µM (inactive)
Cc1nc2c(n1CC(C)(C)C)C(=O)c1ccccc1C2=O | > 100 µM (inactive) | > 100 µM (inactive) | > 100 µM (inactive) | – | > 100 µM (inactive) | > 100 µM (inactive) | > 100 µM (inactive) | > 100 µM (inactive) | > 100 µM (inactive) | 58.6 µM (inactive) | – | > 100 µM (inactive) | > 100 µM (inactive) | > 100 µM (inactive) | 43.1 µM (inactive) | 89.5 µM (inactive) | > 100 µM (inactive)
C/C(CC(=O)Nc1ccc(C)c(C)c1)=N\NC(N)=O | > 100 µM (inactive) | > 100 µM (inactive) | > 100 µM (inactive) | – | > 100 µM (inactive) | > 100 µM (inactive) | > 100 µM (inactive) | > 100 µM (inactive) | > 100 µM (inactive) | > 100 µM (inactive) | > 100 µM (inactive) | > 100 µM (inactive) | > 100 µM (inactive) | > 100 µM (inactive) | > 100 µM (inactive) | > 100 µM (inactive) | 57.9 µM (inactive)
Cc1nc2nnc(C)n2c2c1C(=O)Nc1ccccc1N2 | > 100 µM (inactive) | > 100 µM (inactive) | > 100 µM (inactive) | – | > 100 µM (inactive) | > 100 µM (inactive) | > 100 µM (inactive) | > 100 µM (inactive) | > 100 µM (inactive) | > 100 µM (inactive) | – | > 100 µM (inactive) | > 100 µM (inactive) | > 100 µM (inactive) | – | > 100 µM (inactive) | > 100 µM (inactive)
CC1=NN(C(=O)c2ccncc2)C(=O)C1/N=N/c1ccc(F)cc1 (stereo not drawn) | > 100 µM (inactive) | > 100 µM (inactive) | > 100 µM (inactive) | > 100 µM (inactive) | > 100 µM (inactive) | 20 µM (inactive) | – | – | > 100 µM (inactive) | > 100 µM (inactive) | > 100 µM (inactive) | > 100 µM (inactive) | 58.1 µM (inactive) | > 100 µM (inactive) | > 100 µM (inactive) | > 100 µM (inactive) | 81.1 µM (inactive)
OC1CC1Sc1ccccc1 (stereo not drawn) | 21 µM (inactive) | 34.6 µM (inactive) | 43.5 µM (inactive) | 73.3 µM (inactive) | 40.7 µM (inactive) | 70.1 µM (inactive) | 35 µM (inactive) | 34 µM (inactive) | 35.6 µM (inactive) | 65.2 µM (inactive) | 95.3 µM (inactive) | 28.4 µM (inactive) | 25.2 µM (inactive) | 38.1 µM (inactive) | 31.6 µM (inactive) | 33.3 µM (inactive) | –
Cc1cc2c(c(C(N)=O)c1C)-c1cc(Cl)cc(Cl)c1C2=O | 60.5 µM (inactive) | – | > 100 µM (inactive) | – | > 100 µM (inactive) | 58.9 µM (inactive) | > 100 µM (inactive) | > 100 µM (inactive) | > 100 µM (inactive) | > 100 µM (inactive) | > 100 µM (inactive) | 37.7 µM (inactive) | > 100 µM (inactive) | > 100 µM (inactive) | – | > 100 µM (inactive) | –
[N-]=[N+]=NC12CC3C4CC5CC3C(C1)C(C5)C4C2 | > 100 µM (inactive) | > 100 µM (inactive) | > 100 µM (inactive) | > 100 µM (inactive) | > 100 µM (inactive) | > 100 µM (inactive) | > 100 µM (inactive) | > 100 µM (inactive) | > 100 µM (inactive) | > 100 µM (inactive) | > 100 µM (inactive) | > 100 µM (inactive) | – | > 100 µM (inactive) | > 100 µM (inactive) | > 100 µM (inactive) | > 100 µM (inactive)

Reference: ChEMBL document CHEMBL1201862, “PubChem BioAssay data set” (2004)
